In this assay the test system is pathogens of clinical samples. Briefly: Molecular phenotypic antimicrobial susceptibility test of clinical samples, direct PCR without a separate DNA purification step (Table 6). Format: cell-based. The procedure:
Detection of Molecular Phenotypic Antimicrobial Susceptibility. Disclosed herein are the methods for the detection of phenotypic antimicrobial susceptibility via molecular methods. The present invention describes how a specimen 100 with a known microbial load is incubated and then exposed to a panel of antimicrobial agents to determine sensitivity (prevention of growth) or resistance (allowance of growth) to the specific antimicrobial agents tested utilizing molecular methods.
Sample Collection. Specimens 100 are collected from patients using sterile collection processes that are employed in routine clinical care. Specimens are transported to the testing facility in boric acid preservative.
Preparation of the Specimens for Testing. […] The process for pathogen isolation includes steps of harvesting the pathogen (e.g., via centrifugation), isolating pathogen DNA via a DNA isolation and/or purification kit, and performing PCR on the pathogen DNA via PCR components (e.g., primers, enzymes, buffers) as would be known to the skilled artisan. […] This aliquot is used for antimicrobial susceptibility testing if indicated based on the pathogen detection results. […] Specimens 100 with lower pathogen loads could also be utilized in the antibiotic susceptibility phase of testing with or without a longer incubation period.
Preparation of Antimicrobial Susceptibility Testing Plates. Antimicrobial solutions are prepared at known concentrations. The specific antimicrobials and their concentrations are selected based on the pathogen of interest and the described antimicrobial resistance breakpoints for that specimen pathogen and antimicrobial combination. These antimicrobials have been selected based on those commonly utilized by healthcare providers in routine clinical care for the specific type of suspected infection. The number and types of antimicrobials utilized can be customized based on the infection source, pathogen detected, patient-specific factors such as allergies or other health conditions (e.g., chronic kidney disease or concurrent medication use), or healthcare provider preferences such as antimicrobial availability or cost.
The antimicrobial solutions are prepared in liquid culture media (such as Muller Hinton Broth) to achieve the desired antimicrobial concentration and are then stored at −80° C. until use. For a given specimen, each antimicrobial is tested at a single or multiple antimicrobial concentration(s) which is its established breakpoints for sensitivity. The antimicrobial solutions are prepared and plated out for each specific pathogen. […] This allows for evaluation of pathogen load when no antimicrobial is present.
Specimen Exposure to Antimicrobial Agents. The 1 mL aliquot of the specimen 100 previously mixed with culture media and incubated is obtained. Using optical density measurements as a guide, the specimen 100 is diluted to 0.5 McFarland.
Antimicrobial exposure plates are typically placed into an incubator for 12-16 hours.
Nucleic Acid Amplification of Antimicrobial Agent Exposed Pathogens. The antimicrobial exposure plate is removed after the period of incubation. The specimen then undergoes a purification or lysis step. For example, the specimen may undergo a purification step (e.g., magnetic bead-based or other separation protocol to isolate genetic material). In another example, the specimen may undergo a cell lysis step. For example, buffer (e.g., lysis buffer) may be added and incubated in the thermal cycler for preparation for direct PCR. Next, the specimen may undergo a polymerase chain reaction (PCR) testing protocol, whereby a semi-quantitative PCR method is utilized. This may be completed either with or without a specific extraction protocol step. The pathogens can be individually targeted and detected, or a universal genetic sequence can be utilized to detect the antimicrobial susceptibility of the specimen as a whole.

Where [1] appears, read: E. coli, clinical sample of r10-r24.
The mark [2] stands for this setting: E. coli, clinical sample of r10-r24, Ct control avg 12.97.
[3] abbreviates: E. coli, clinical sample of r158-r172.
The mark [4] stands for this setting: E. coli, clinical sample of r158-r172, Ct control avg 12.894.
Setting [5] is: K. aerogenes, clinical sample of r136-r150.
[6] abbreviates: K. aerogenes, clinical sample of r136-r150, Ct control avg 13.854.
Where [7] appears, read: K. pneumoniae, clinical sample of r121-r135.
[8] abbreviates: K. pneumoniae, clinical sample of r121-r135, Ct control avg […].
The mark [9] stands for this setting: M. morganii, clinical sample of r55-r69.
Where [10] appears, read: M. morganii, clinical sample of r55-r69, Ct control avg 12.09.
[11] abbreviates: M. morganii, clinical sample of r70-r84.
Where [12] appears, read: M. morganii, clinical sample of r70-r84, Ct control avg 11.677.
[13] abbreviates: P. mirabilis, clinical sample of r25-r39.
Setting [14] is: P. mirabilis, clinical sample of r25-r39, Ct control avg 11.801.
Setting [15] is: P. mirabilis, clinical sample of r40-r54.
Where [16] appears, read: P. mirabilis, clinical sample of r40-r54, Ct control avg 10.06.
Where [17] appears, read: S. aureus, clinical sample of r85-r92.
Where [18] appears, read: S. aureus, clinical sample of r85-r92, Ct control avg 20.309.

Turning to Trimethoprim/Sulfamethoxazole [TMP/SMX], the “Molecular Antibiotic Susceptibility Result” value reads like this: under setting [1], “Sensitive (Antimicrobial wells with pathogen load detected below the control wells (typically >2 cycle thresholds later) may be reported as Sensitive)”; under setting [3], “Sensitive (Antimicrobial wells with pathogen load detected below the control wells (typically >2 cycle thresholds later) may be reported as Sensitive)”; under setting [5], “Sensitive (Antimicrobial wells with pathogen load detected below the control wells (typically >2 cycle thresholds later) may be reported as Sensitive)”; under setting [7], “Sensitive (Antimicrobial wells with pathogen load detected below the control wells (typically >2 cycle thresholds later) may be reported as Sensitive)”; under setting [9], “Sensitive (Antimicrobial wells with pathogen load detected below the control wells (typically >2 cycle thresholds later) may be reported as Sensitive)”; under setting [11], “Sensitive (Antimicrobial wells with pathogen load detected below the control wells (typically >2 cycle thresholds later) may be reported as Sensitive)”. Besides, the “Molecular Antibiotic Susceptibility Result” value under setting [13] is on record as “Sensitive (Antimicrobial wells with pathogen load detected below the control wells (typically >2 cycle thresholds later) may be reported as Sensitive)”, the “Molecular Antibiotic Susceptibility Result” value under setting [15] is on record as “Sensitive (Antimicrobial wells with pathogen load detected below the control wells (typically >2 cycle thresholds later) may be reported as Sensitive)” and the “Molecular Antibiotic Susceptibility Result” value under setting [17] is given as “Sensitive (Antimicrobial wells with pathogen load detected below the control wells (typically >2 cycle thresholds later) may be reported as Sensitive)”. For the same compound, the Ct under setting [2] came to 24.066; the Ct under setting [4] is reported as 28.739; the Ct under setting [6] turned out to be 30.511; the Ct under setting [8] is reported as 29.719; the Ct under setting [10] was 22.916; the Ct under setting [12] is recorded as 22.281. Further, the Ct by setting is: under setting [14], 23.476; under setting [16], 25.628; under setting [18], 28.965.

Regarding Ampicillin/Sulbactam, the “Molecular Antibiotic Susceptibility Result” value is, setting by setting: under setting [1], “Resistant”; under setting [3], “Sensitive (Antimicrobial wells with pathogen load detected below the control wells (typically >2 cycle thresholds later) may be reported as Sensitive)”; under setting [5], “Sensitive (Antimicrobial wells with pathogen load detected below the control wells (typically >2 cycle thresholds later) may be reported as Sensitive)”; under setting [7], “Resistant”; under setting [9], “Sensitive (Antimicrobial wells with pathogen load detected below the control wells (typically >2 cycle thresholds later) may be reported as Sensitive)”; under setting [11], “Sensitive (Antimicrobial wells with pathogen load detected below the control wells (typically >2 cycle thresholds later) may be reported as Sensitive)”. Also, the “Molecular Antibiotic Susceptibility Result” value is, setting by setting: under setting [13], “Sensitive (Antimicrobial wells with pathogen load detected below the control wells (typically >2 cycle thresholds later) may be reported as Sensitive)”; under setting [15], “Sensitive (Antimicrobial wells with pathogen load detected below the control wells (typically >2 cycle thresholds later) may be reported as Sensitive)”. Further, the Ct was found to be 13.482 under setting [2]; 27.583 under setting [4]; 29.276 under setting [6]; 15.608 under setting [8]; 26.942 under setting [10]; 32.39 under setting [12]. Moreover, the Ct under setting [14] is 28.121 and the Ct under setting [16] came out at 30.953.

Take Gentamicin: the “Molecular Antibiotic Susceptibility Result” value runs as follows: under setting [1], “Sensitive (Antimicrobial wells with pathogen load detected below the control wells (typically >2 cycle thresholds later) may be reported as Sensitive)”; under setting [3], “Sensitive (Antimicrobial wells with pathogen load detected below the control wells (typically >2 cycle thresholds later) may be reported as Sensitive)”; under setting [5], “Sensitive (Antimicrobial wells with pathogen load detected below the control wells (typically >2 cycle thresholds later) may be reported as Sensitive)”; under setting [7], “Sensitive (Antimicrobial wells with pathogen load detected below the control wells (typically >2 cycle thresholds later) may be reported as Sensitive)”; under setting [9], “Sensitive (Antimicrobial wells with pathogen load detected below the control wells (typically >2 cycle thresholds later) may be reported as Sensitive)”; under setting [11], “Sensitive (Antimicrobial wells with pathogen load detected below the control wells (typically >2 cycle thresholds later) may be reported as Sensitive)”. Besides, the “Molecular Antibiotic Susceptibility Result” value reads like this: under setting [13], “Sensitive (Antimicrobial wells with pathogen load detected below the control wells (typically >2 cycle thresholds later) may be reported as Sensitive)”; under setting [15], “Sensitive (Antimicrobial wells with pathogen load detected below the control wells (typically >2 cycle thresholds later) may be reported as Sensitive)”; under setting [17], “Sensitive (Antimicrobial wells with pathogen load detected below the control wells (typically >2 cycle thresholds later) may be reported as Sensitive)”. Also, the Ct under setting [2] is listed as 23.559; the Ct under setting [4] worked out at 28.667; the Ct under setting [6] is 31.347; the Ct under setting [8] is 23.5; the Ct under setting [10] is recorded as 32.648; the Ct under setting [12] was 30.206. Also, the Ct was determined as 22.67 under setting [14], 30.321 under setting [16] and 31.422 under setting [18].

Take `CO/N=C(\C(=O)N[C@@H]1C(=O)N2C(C(=O)[O-])=C(C[N+]3(C)CCCC3)CS[C@H]12)c1csc(N)n1` [Cefepime]: the “Molecular Antibiotic Susceptibility Result” value under setting [1] is “Sensitive (Antimicrobial wells with pathogen load detected below the control wells (typically >2 cycle thresholds later) may be reported as Sensitive)”; the “Molecular Antibiotic Susceptibility Result” value under setting [3] is “Sensitive (Antimicrobial wells with pathogen load detected below the control wells (typically >2 cycle thresholds later) may be reported as Sensitive)”; the “Molecular Antibiotic Susceptibility Result” value under setting [5] is recorded as “Sensitive (Antimicrobial wells with pathogen load detected below the control wells (typically >2 cycle thresholds later) may be reported as Sensitive)”; the “Molecular Antibiotic Susceptibility Result” value under setting [7] is given as “Sensitive (Antimicrobial wells with pathogen load detected below the control wells (typically >2 cycle thresholds later) may be reported as Sensitive)”; the “Molecular Antibiotic Susceptibility Result” value under setting [9] is recorded as “Sensitive (Antimicrobial wells with pathogen load detected below the control wells (typically >2 cycle thresholds later) may be reported as Sensitive)”; the “Molecular Antibiotic Susceptibility Result” value under setting [11] is given as “Sensitive (Antimicrobial wells with pathogen load detected below the control wells (typically >2 cycle thresholds later) may be reported as Sensitive)”. Moreover, the “Molecular Antibiotic Susceptibility Result” value under setting [13] was “Sensitive (Antimicrobial wells with pathogen load detected below the control wells (typically >2 cycle thresholds later) may be reported as Sensitive)” and the “Molecular Antibiotic Susceptibility Result” value under setting [15] is on record as “Sensitive (Antimicrobial wells with pathogen load detected below the control wells (typically >2 cycle thresholds later) may be reported as Sensitive)”.

For the origin of these results see patent publication US20250290117A1, “MOLECULAR PHENOTYPIC ANTIMICROBIAL SUSCEPTIBILITY TESTING” (priority 2024, published 2025).
